pIC50: −log10 of the molar value.

Experimental findings from patent publication US5258378A, “Pyrroloazepine compounds useful as dopaminergic agents” (Lilly Industries Limited, priority 1990, dated 1993) are described below.

This assay addresses T1, dopamine, D1 receptors (Rattus norvegicus, UniProt P18901).
T1 construct: from tissue; host or cells: rat striatum (inferred from the cited Billard et al. 1984)
The experiment in a line: 3H-SCH23390 binding test (Billard et al.). The settings on record: 3H-SCH23390 radioligand; read-out: IC50 value (the concentration of the compound required to reduce the binding of 3H-SCH23390 by 50%). The source says: As mentioned above, the compounds of formula (I), with the exception of those in which both R^1 and R^2 are hydrogen and those in which R^3 in optionally substituted phenylsulphonyl, have useful central nervous system activity with low toxicity. […] The compounds of formula (I) and pharmaceutically-acceptable acid addition salts thereof, are potent centrally acting compounds which are useful in the treatment of depression, mild anxiety states, certain kinds of psychotic conditions such as schizophrenia and acute mania and parkinsonism.

T1 sequence (P18901 whole entry): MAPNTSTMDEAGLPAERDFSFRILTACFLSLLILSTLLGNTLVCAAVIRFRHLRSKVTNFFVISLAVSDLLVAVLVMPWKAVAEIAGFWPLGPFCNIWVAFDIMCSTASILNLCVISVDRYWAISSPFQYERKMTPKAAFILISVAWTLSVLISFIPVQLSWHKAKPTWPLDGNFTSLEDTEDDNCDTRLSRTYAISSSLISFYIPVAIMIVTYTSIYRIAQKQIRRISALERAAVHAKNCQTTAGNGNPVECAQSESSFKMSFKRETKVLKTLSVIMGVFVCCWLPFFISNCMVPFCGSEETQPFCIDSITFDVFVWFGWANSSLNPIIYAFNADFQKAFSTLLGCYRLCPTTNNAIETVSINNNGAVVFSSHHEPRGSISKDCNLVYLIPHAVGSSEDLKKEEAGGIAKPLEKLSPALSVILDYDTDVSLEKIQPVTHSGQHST

With `CN1CCc2c([nH]c(Br)c2Br)C(c2ccccc2)C1` (racemic) [Example 10, 2,3-Dibromo-1,4,5,6,7,8-hexahydro-6-methyl-8-phenylpyrrolo[2,3-d]azepine], the pIC50 is 5.96.
The result for `CN1CCc2c(Br)c[nH]c2C(c2ccccc2)C1` (racemic) [Example 12, 3-Bromo-1,4,5,6,7,8-hexahydro-6-methyl-8-phenylpyrrolo[2,3-d]azepine] reads 6.82.
